Reference: patent US12570666B2, “Furoindazole derivatives” (Bayer Aktiengesellschaft, priority 2019, dated 2026)

Target: T1, human GPR84 receptor (Homo sapiens, UniProt Q9NQS5)
T1 construct: frozen aliquots prepared by acCELLerate; host or cells: CHO-K1
Assay: cAMP HTRF assay for identification of cellular GPR84 antagonists
Assay type: cell-based
Details: CHO-K1 cells stably expressing human GPR84; Forskolin + agonist 6-OAU (EC80); average or median values
Summary of the method: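 Forskolin-stimulated CHO-K1 cells stably expressing human GPR84, agonist-suppressed cAMP measured by HTRF (665/620 ratio) after lysis. Compounds at 11 concentrations, 20 μM to 0.07 nM, duplicate; normalized to DMSO and no-agonist controls; IC50 by 4-parameter fit.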

T1 sequence (Q9NQS5 whole entry): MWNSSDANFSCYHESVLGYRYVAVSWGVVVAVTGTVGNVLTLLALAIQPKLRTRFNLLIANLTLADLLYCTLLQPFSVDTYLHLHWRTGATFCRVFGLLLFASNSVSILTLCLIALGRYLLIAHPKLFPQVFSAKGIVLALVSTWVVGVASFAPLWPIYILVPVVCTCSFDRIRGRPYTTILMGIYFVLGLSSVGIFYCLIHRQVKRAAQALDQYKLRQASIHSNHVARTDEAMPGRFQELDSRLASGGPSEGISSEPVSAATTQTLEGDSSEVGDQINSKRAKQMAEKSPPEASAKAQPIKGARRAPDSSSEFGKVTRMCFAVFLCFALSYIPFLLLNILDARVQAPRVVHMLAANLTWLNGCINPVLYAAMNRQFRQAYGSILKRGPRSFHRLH

IC50	Structure (SMILES)
11 nM	O=C(NC[C@@H]1CCCO1)c1oc2c(c1C(F)(F)F)-c1nn(CC3CCN(C(=O)C4CC4)CC3)cc1CC2 [Example 286, 2-{[1-(cyclopropanecarbonyl)piperidin-4-yl]methyl}-N-{[(2S)-oxolan-2-yl]methyl}-8-(trifluoromethyl)-4,5-dihydro-2H-furo[2,3-g]indazole-7-carboxamide]
110 nM	Cc1c(C(=O)NC[C@@H]2COCCO2)oc2c1-c1nn(CC3CC3)cc1CC2 [Example 49, 2-(cyclopropylmethyl)-N-[(2R)-1,4-dioxan-2-ylmethyl]-8-methyl-4,5-dihydro-2H-furo[2,3-g]indazole-7-carboxamide]
16 nM	O=C(NCc1nccs1)c1oc2c(c1C(F)(F)F)-c1nn(C[C@H]3COCCO3)cc1CC2 [Example 226, 2-[(2S)-1,4-Dioxan-2-ylmethyl]-N-(1,3-thiazol-2-ylmethyl)-8-(trifluormethyl)-4,5-dihydro-2H-furo[2,3-g]indazol-7-carboxamide]
12 nM	O=C(NC[C@H]1CC(F)(F)CO1)c1oc2c(c1C(F)(F)F)-c1nn(C[C@H]3COCCO3)cc1CC2 (single isomer, unassigned) [Example 222-1, N-{[(2R or 2S)-4,4-difluorooxolan-2-yl]methyl}-2-{[(2S)-1,4-dioxan-2-yl]methyl}-8-(trifluoromethyl)-4,5-dihydro-2H-furo[2,3-g]indazole-7-carboxamide]
12000 nM	Cc1c(C(=O)NCC2CCCCO2)oc2c1-c1nn(Cc3ccccn3)cc1CC2 (racemic) [Example 172]
1550 nM	Cc1c(C(=O)NC[C@@H]2CCCO2)oc2c1-c1nn(CC3CNC3)cc1CC2 [Example 158, 2-(azetidin-3-ylmethyl)-8-methyl-N-[(2S)-tetrahydrofuran-2-ylmethyl]-4,5-dihydro-2H-furo[2,3-g]indazole-7-carboxamide]
61 nM	Cc1c(C(=O)NCC2CC(C)CO2)oc2c1-c1nn(Cc3ccccn3)cc1CC2 (mixture of isomers) [Example 175]
16 nM	CC(=O)N1CCC(Cn2cc3c(n2)-c2c(oc(C(=O)NC[C@@H]4CCCO4)c2C(F)(F)F)CC3)CC1 [Example 305, 2-[(1-acetylpiperidin-4-yl)methyl]-N-{[(2S)-oxolan-2-yl]methyl}-8-(trifluoromethyl)-4,5-dihydro-2H-furo[2,3-g]indazole-7-carboxamide]
9500 nM	Cc1c(C(=O)NCC2(F)COC2)oc2c1-c1nn(Cc3ccccn3)cc1CC2 [Example 37, N-[(3-fluorooxetan-3-yl)methyl]-8-methyl-2-(pyridin-2-ylmethyl)-4,5-dihydro-2H-furo[2,3-g]indazole-7-carboxamide]
168 nM	Cc1c(C(=O)NC[C@@H]2CCCO2)oc2c1-c1nn(Cc3cc(F)ccn3)cc1CC2 [Example 182]
9 nM	Cc1c(C(=O)NC[C@@H]2CCCO2)oc2c1-c1nn(CC3CN(C(=O)OCc4ccccc4)C3)cc1CC2 [Example 156, benzyl 3-[(8-methyl-7-{[(2S)-tetrahydrofuran-2-ylmethyl]carbamoyl}-4,5-dihydro-2H-furo[2,3-g]indazol-2-yl)methyl]azetidine-1-carboxylate]
8 nM	Cc1ccc(Cn2cc3c(n2)-c2c(oc(C(=O)NC[C@@H]4COCCO4)c2C(F)(F)F)CC3)cn1 [Example 191]
240 nM	Cc1c(C(=O)NC[C@@H]2CCCO2)oc2c1-c1nn(C(=O)N(C)C)cc1C1(CC1)C2 [Example 153]
27 nM	O=C(NC[C@@H]1COCCO1)c1oc2c(c1C(F)(F)F)-c1nn(C[C@H]3COCCO3)cc1C1(CCC1)C2 [Example 269, N-[(2R)-1,4-dioxan-2-ylmethyl]-2′-[(2S)-1,4-dioxan-2-ylmethyl]-8′-(trifluormethyl)-2′,5′-dihydrospiro[cyclobutan-1,4′-furo[2,3-g]indazol]-7′-carboxamide]
4790 nM	COc1cccc(-c2cc(CNC(=O)c3oc4c(c3C)-c3nn(Cc5ccccn5)cc3CC4)no2)c1 [Example 14, N-{[5-(3-methoxyphenyl)-1,2-oxazol-3-yl]methyl}-8-methyl-2-(pyridin-2-ylmethyl)-4,5-dihydro-2H-furo[2,3-g]indazole-7-carboxamide]
89 nM	Cn1cnc(CNC(=O)c2oc3c(c2C(F)(F)F)-c2nn(C[C@H]4COCCO4)cc2CC3)c1 [Example 229, 2-[(2S)-1,4-Dioxan-2-ylmethyl]-N-[(1-methyl-1H-imidazol-4-yl)methyl]-8-(trifluormethyl)-4,5-dihydro-2H-furo[2,3-g]indazol-7-carboxamide]
2 nM	C[C@@H]1Cc2oc(C(=O)NCc3cnc(C4CC4)cn3)c(C(F)(F)F)c2-c2nn(C[C@H]3COCCO3)cc21 (single isomer, unassigned) [Example 322, (4R or 4S)—N-[(5-cyclopropylpyrazin-2-yl)methyl]-2-{[(2S)-1,4-dioxan-2-yl]methyl}-4-methyl-8-(trifluoromethyl)-4,5-dihydro-2H-furo[2,3-g]indazole-7-carboxamide]

IC50	Structure (SMILES)
110 nM	Cc1c(C(=O)NCc2cc(C3CC3)on2)oc2c1-c1nn(CC3COc4ncccc4O3)cc1CC2 (single isomer, unassigned) [Example 50-1]
38 nM	CC1(C)Cc2oc(C(=O)NC[C@@H]3CCCO3)c(C(F)(F)F)c2-c2nn(C[C@H]3COCCO3)cc21 [Example 268, 2-{[(2S)-1,4-dioxan-2-yl]methyl}-4,4-dimethyl-N-{[(2S)-oxolan-2-yl]methyl}-8-(trifluoromethyl)-4,5-dihydro-2H-furo[2,3-g]indazole-7-carboxamide]
750 nM	Cc1cccc(Cn2cc3c(n2)-c2c(oc(C(=O)NCCN4CCCC4)c2C)CC3)n1 [Example 69, 8-methyl-2-[(6-methylpyridin-2-yl)methyl]-N-[2-(pyrrolidin-1-yl)ethyl]-4,5-dihydro-2H-furo[2,3-g]indazole-7-carboxamide]
58 nM	Cc1c(C(=O)NC[C@@H]2COCCO2)oc2c1-c1nn(C[C@@H]3CCCO3)cc1CC2 [Example 108, N[(2R)-1,4-dioxan-2-ylmethyl]-8-methyl-2-[(2S)-tetrahydrofuran-2-ylmethyl]-4,5-dihydro-2H-furo[2,3-g]indazole-7-carboxamide]
60 nM	Cc1ccc(Cn2cc3c(n2)-c2c(oc(C(=O)NC[C@@H]4CCCO4)c2C)CC3)cn1 [Example 75, 8-methyl-2-[(6-methylpyridin-3-yl)methyl]-N-[(2S)-tetrahydrofuran-2-ylmethyl]-4,5-dihydro-2H-furo[2,3-g]indazole-7-carboxamide]
380 nM	Cc1cc(Cn2cc3c(n2)-c2c(oc(C(=O)NC[C@@H]4CCCO4)c2C)CC3)cc(C)n1 [Example 81, 2-[(2,6-dimethylpyridin-4-yl)methyl]-8-methyl-N-[(2S)-tetrahydrofuran-2-ylmethyl]-4,5-dihydro-2H-furo[2,3-g]indazole-7-carboxamide]
39 nM	Cc1c(C(=O)NC[C@@H]2COCCO2)oc2c1-c1nn(C[C@H]3COCCO3)cc1C1(CC1)C2 [Example 126]
310 nM	Cc1c(C(=O)NC[C@@H]2COCCO2)oc2c1-c1nn(C[C@@H]3CCO3)cc1CC2 [Example 100, N-[(2R)-1,4-dioxan-2-ylmethyl]-8-methyl-2-[(2S)-oxetan-2-ylmethyl]-4,5-dihydro-2H-furo[2,3-g]indazole-7-carboxamide]
13 nM	Cc1c(C(=O)NC[C@@H]2CCCO2)oc2c1-c1nn(Cc3ccncc3)cc1CC2 [Example 46, 8-methyl-2-(pyridin-4-ylmethyl)-N-[(2S)-tetrahydrofuran-2-ylmethyl]-4,5-dihydro-2H-furo[2,3-g]indazole-7-carboxamide]
64 nM	Cc1c(C(=O)NC[C@@H]2CCCO2)oc2c1-c1nn(CC3COC3)cc1CC2 [Example 91, 8-methyl-2-(oxetan-3-ylmethyl)-N-[(2S)-tetrahydrofuran-2-ylmethyl]-4,5-dihydro-2H-furo[2,3-g]indazole-7-carboxamide]
122 nM	Cc1c(C(=O)NC[C@@H]2CCCO2)oc2c1-c1nn(C[C@H]3COCCO3)cc1C(C)C2 (mixture of isomers) [Example 249, (4±)-2-{[(2S)-1,4-dioxan-2-yl]methyl}-4,8-dimethyl-N-{[(2S)-oxolan-2-yllmethyl}-4,5-dihydro-2H-furo[2,3-g]indazole-7-carboxamide]
139 nM	COCC(=O)N1CCC(Cn2cc3c(n2)-c2c(oc(C(=O)NC[C@@H]4COCCO4)c2C(F)(F)F)CC3)CC1 [Example 283, N-{[(2R)-1,4-dioxan-2-yl]methyl}-2-{[1-(methoxyacetyl)piperidin-4-yl]methyl}-8-(trifluoromethyl)-4,5-dihydro-2H-furo[2,3-g]indazole-7-carboxamide]
53 nM	Cc1ccc(Cn2cc3c(n2)-c2c(oc(C(=O)NCc4ccn(C)n4)c2C(F)(F)F)CC32CCC2)nc1 [Example 279, N-[(1-Methyl-1H-pyrazol-3-yl)methyl]-2′-[(5-methylpyridin-2-yl)methyl]-8′-(trifluormethyl)-2′,5′-dihydrospiro[cyclobutan-1,4′-furo[2,3-g]indazol]-7′-carboxamide]
13 nM	C[C@@H]1Cc2oc(C(=O)NC[C@@H]3CCCO3)c(C(F)(F)F)c2-c2nn(CC3CCOCC3)cc21 [Example 264, (4 or 4S)-4-methyl-2-[(oxan-4-yl)methyl]-N-{[(2S)-oxolan-2-yl]methyl}-8-(trifluoromethyl)-4,5-dihydro-2H-furo[2,3-g]indazole-7-carboxamide]
170 nM	Cc1c(C(=O)NC[C@@H]2CCCO2)oc2c1-c1nn(C[C@@H]3CN(C)CCO3)cc1CC2 [Example 103, 8-methyl-2-{[(2S)-4-methylmorpholin-2-yl]methyl}-N-[(2S)-tetrahydrofuran-2-ylmethyl]-4,5-dihydro-2H-furo[2,3-g]indazole-7-carboxamide]
79 nM	Cc1c(C(=O)NCC2CC(C)CO2)oc2c1-c1nn(C[C@H]3COCCO3)cc1C1(CC1)C2 (mixture of isomers) [Example 199]
